Reference: ChEMBL document CHEMBL1131898, “4-Pyridin-5-yl-2-(3,4,5-trimethoxyphenylamino)pyrimidines: potent and selective inhibitors of ZAP 70” (Bioorg Med Chem Lett, 1999)

Columns and labels:
[1] = biological target: Tyrosine-protein kinase Lck (Homo sapiens, UniProt P06239); test: Inhibition of p56 lck tyrosine kinase
[2] = biological target: T1, Tyrosine-protein kinase ZAP-70 (Homo sapiens, UniProt P43403); test: Inhibition of Zeta-chain (TCR) associated protein kinase 70 kDa phosphorylation of polyGly-Tyr.
T1 sequence (P43403 whole entry): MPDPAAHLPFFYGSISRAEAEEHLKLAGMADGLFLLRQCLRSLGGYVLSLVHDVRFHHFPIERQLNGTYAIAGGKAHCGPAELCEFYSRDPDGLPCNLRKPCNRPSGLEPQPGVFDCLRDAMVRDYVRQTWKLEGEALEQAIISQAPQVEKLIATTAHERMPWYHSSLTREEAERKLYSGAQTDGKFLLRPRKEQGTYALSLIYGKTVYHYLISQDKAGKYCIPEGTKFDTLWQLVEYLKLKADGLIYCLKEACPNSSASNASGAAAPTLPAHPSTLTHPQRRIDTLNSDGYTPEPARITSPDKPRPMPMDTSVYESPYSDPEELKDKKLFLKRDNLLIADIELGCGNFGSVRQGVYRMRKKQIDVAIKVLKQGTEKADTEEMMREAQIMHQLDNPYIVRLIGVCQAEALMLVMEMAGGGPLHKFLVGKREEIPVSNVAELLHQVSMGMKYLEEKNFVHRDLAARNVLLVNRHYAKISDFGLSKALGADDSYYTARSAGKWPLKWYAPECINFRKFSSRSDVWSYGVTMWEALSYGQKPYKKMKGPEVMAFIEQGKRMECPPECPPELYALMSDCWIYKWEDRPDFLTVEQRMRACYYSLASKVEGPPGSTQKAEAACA

Protein kinase C (PKC) = test: Inhibition of protein kinase C (PKC); assay type: protein assay
[3] = biological target: Tyrosine-protein kinase CSK (Homo sapiens, UniProt P41240); test: Inhibition of csk tyrosine kinase
[4] = biological target: Epidermal growth factor receptor (Homo sapiens, UniProt P00533); test: Inhibition of Epidermal growth factor receptor (EGFr)
Sequence of Epidermal growth factor receptor (P00533 whole entry): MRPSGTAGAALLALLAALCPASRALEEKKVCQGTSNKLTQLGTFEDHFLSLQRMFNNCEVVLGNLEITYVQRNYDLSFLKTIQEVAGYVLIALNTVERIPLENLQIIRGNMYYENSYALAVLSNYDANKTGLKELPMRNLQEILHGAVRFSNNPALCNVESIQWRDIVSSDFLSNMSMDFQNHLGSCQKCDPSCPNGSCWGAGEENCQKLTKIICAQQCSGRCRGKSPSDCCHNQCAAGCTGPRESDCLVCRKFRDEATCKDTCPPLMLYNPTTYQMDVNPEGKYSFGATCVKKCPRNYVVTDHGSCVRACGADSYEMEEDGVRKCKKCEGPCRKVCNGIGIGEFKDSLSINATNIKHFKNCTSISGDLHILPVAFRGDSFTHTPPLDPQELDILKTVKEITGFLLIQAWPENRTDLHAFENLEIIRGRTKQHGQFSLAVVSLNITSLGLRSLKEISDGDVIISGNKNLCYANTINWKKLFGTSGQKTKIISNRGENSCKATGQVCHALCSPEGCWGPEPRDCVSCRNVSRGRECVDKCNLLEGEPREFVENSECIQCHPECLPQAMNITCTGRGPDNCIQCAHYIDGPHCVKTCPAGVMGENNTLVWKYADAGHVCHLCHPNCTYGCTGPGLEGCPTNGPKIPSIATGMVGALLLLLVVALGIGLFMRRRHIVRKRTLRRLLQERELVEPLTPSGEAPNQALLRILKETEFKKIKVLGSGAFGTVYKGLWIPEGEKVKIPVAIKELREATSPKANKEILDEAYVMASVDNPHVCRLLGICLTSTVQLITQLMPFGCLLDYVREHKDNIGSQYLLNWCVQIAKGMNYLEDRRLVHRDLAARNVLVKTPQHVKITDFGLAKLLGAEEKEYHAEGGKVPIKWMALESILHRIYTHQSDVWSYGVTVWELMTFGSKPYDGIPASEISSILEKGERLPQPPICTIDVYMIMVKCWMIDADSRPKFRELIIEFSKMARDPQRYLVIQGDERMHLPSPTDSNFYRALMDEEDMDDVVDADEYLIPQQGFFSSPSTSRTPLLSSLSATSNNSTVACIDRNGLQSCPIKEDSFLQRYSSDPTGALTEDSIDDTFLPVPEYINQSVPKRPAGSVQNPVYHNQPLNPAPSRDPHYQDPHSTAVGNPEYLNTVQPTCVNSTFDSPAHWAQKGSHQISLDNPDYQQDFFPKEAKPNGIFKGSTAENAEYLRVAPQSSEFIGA

Sequence of Tyrosine-protein kinase Lck (P06239 whole entry): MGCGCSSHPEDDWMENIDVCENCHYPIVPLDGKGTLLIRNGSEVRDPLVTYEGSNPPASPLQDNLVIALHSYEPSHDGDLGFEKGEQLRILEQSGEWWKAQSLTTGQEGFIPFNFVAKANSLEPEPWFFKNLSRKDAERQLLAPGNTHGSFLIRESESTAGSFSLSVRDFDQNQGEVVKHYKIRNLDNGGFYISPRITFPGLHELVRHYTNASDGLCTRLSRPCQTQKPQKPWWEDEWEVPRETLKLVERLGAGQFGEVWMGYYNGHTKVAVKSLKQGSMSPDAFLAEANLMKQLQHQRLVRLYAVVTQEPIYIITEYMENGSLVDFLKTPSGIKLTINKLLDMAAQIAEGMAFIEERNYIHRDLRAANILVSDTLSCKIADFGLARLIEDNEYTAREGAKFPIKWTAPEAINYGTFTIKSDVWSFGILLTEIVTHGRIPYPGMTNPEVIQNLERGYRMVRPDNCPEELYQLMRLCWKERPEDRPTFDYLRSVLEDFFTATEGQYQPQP

| IC50 [1] [µM] | IC50 [2] [µM] | IC50 (Protein kinase C (PKC)) [µM] | IC50 [3] [µM] | IC50 [4] [µM] | Compound |
| --- | --- | --- | --- | --- | --- |
| 1.1 | 1.9 | 1.4 | – | – | COc1cc(Nc2nccc(-c3cccnc3)n2)cc(OC)c1OC |
| 1.2 | – | 0.15 | > 10 | 5.1 | COc1cc(Nc2nccc(-c3ccc(NCCN)nc3)n2)cc(OC)c1OC |
| 3.3 | 0.054 | 1.3 | > 10 | – | COc1cc(Nc2nccc(-c3ccc(N4CCNCC4)nc3)n2)cc(OC)c1OC |
| 2.2 | 0.008 | 2.874 | – | – | CC[C@H]1CN(c2ccc(-c3ccnc(Nc4cc(OC)c(OC)c(OC)c4)n3)cn2)CCN1 |
